What all share (type): cell-based
Common to all, as to settings: compounds at 50 nM and 500 nM, 24 hours

In one assay the target is T1, WEE1 (Homo sapiens, UniProt P30291+Q96SW2).
T1 construct: effects of the compounds of the present disclosure on the expression of target proteins in cells; endogenous in cells; host or cells: human PBMCs (hPBMCs)
Kind of assay: Western-blot assay, substrate protein degradation in hPBMCs: WEE1.

Another assay concerns the target T2, IKZF1 (Homo sapiens, UniProt Q13422+Q96SW2).
T2 construct: effects of the compounds of the present disclosure on the expression of target proteins in cells; endogenous in cells; host or cells: human PBMCs (hPBMCs)
Kind of assay: Western-blot assay, substrate protein degradation in hPBMCs: IKZF1.

For a further assay, the target named is T3, IKZF2 (Homo sapiens, UniProt Q96SW2+Q9UKS7).
T3 construct: effects of the compounds of the present disclosure on the expression of target proteins in cells; endogenous in cells; host or cells: human PBMCs (hPBMCs)
Briefly: Western-blot assay, substrate protein degradation in hPBMCs: IKZF2.

A further assay deals with T4, IKZF3 (Homo sapiens, UniProt Q96SW2+Q9UKT9).
T4 construct: effects of the compounds of the present disclosure on the expression of target proteins in cells; endogenous in cells; host or cells: human PBMCs (hPBMCs)
T4 sequence (Q9UKT9 whole entry): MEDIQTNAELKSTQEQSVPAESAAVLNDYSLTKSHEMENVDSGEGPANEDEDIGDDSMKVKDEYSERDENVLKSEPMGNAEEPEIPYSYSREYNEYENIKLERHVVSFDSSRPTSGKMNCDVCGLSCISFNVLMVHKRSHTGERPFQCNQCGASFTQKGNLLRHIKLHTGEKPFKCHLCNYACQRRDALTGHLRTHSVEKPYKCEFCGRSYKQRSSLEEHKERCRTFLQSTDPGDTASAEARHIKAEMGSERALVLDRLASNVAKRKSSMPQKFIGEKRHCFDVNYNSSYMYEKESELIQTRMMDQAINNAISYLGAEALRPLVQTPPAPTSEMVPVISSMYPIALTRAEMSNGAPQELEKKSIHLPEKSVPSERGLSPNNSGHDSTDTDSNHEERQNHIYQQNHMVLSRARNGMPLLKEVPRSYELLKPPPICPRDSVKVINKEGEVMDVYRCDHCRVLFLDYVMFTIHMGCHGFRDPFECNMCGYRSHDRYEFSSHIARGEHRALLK
T4 sequence (Q96SW2 whole entry): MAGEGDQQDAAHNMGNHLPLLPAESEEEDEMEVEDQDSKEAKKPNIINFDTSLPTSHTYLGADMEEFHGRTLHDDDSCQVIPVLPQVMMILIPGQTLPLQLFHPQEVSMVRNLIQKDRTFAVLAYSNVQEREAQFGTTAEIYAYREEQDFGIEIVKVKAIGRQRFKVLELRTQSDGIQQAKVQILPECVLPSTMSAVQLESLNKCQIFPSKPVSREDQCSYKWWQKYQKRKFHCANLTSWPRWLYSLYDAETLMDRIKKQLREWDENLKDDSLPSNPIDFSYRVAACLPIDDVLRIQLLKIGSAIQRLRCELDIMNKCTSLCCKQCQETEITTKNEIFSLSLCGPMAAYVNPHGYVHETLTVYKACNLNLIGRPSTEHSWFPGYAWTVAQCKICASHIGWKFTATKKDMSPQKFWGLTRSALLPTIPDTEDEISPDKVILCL
T4 sequence (Q16531 whole entry partner): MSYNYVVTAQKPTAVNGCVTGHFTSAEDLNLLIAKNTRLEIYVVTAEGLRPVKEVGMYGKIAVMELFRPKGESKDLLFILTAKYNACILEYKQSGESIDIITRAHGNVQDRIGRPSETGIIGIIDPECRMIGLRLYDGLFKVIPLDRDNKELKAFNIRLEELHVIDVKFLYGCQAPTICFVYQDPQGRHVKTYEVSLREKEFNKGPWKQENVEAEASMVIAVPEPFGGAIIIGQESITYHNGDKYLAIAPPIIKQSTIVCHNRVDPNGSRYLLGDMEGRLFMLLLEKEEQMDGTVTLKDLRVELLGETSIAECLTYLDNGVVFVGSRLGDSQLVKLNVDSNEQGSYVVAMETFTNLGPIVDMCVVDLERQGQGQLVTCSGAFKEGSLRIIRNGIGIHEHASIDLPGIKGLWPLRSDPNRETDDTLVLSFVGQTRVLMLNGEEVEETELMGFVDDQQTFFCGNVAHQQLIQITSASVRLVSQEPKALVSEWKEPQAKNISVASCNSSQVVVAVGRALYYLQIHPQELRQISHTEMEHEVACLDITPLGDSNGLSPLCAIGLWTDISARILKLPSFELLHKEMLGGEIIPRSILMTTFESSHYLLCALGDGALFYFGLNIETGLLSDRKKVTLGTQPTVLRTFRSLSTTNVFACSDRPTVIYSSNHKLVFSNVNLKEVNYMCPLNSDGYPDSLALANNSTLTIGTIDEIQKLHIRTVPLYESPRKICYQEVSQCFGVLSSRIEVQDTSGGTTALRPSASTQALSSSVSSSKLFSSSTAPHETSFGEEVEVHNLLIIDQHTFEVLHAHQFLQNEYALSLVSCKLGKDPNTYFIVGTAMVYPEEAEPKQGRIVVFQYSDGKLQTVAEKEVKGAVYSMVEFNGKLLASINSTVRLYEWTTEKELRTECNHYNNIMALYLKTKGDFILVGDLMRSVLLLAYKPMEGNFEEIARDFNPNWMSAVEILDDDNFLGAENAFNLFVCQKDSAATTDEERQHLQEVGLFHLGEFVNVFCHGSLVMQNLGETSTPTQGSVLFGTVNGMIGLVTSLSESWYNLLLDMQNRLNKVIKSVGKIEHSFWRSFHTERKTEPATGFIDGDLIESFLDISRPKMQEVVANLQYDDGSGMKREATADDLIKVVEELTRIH
Briefly: Western-blot assay, substrate protein degradation in hPBMCs: IKZF3.

The target in a further assay is T5, CK1α (Homo sapiens, UniProt P48729+Q96SW2).
T5 construct: effects of the compounds of the present disclosure on the expression of target proteins in cells; endogenous in cells; host or cells: human PBMCs (hPBMCs)
T5 sequence (P48729 whole entry): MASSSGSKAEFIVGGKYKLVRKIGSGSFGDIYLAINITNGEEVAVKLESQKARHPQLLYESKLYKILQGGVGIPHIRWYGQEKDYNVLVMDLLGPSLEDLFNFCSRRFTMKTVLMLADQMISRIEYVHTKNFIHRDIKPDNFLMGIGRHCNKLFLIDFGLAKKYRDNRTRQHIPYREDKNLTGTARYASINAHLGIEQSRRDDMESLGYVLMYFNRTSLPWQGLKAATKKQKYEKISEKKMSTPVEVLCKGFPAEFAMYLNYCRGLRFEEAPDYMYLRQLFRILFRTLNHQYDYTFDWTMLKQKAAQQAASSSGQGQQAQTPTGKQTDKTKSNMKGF
T5 sequence (Q96SW2 whole entry): as the sequence (Q96SW2 whole entry) above
T5 sequence (Q16531 whole entry partner): as the sequence (Q16531 whole entry partner) above
Kind of assay: Western-blot assay, substrate protein degradation in hPBMCs: CK1α.

Another assay has as its target T6, GSPT1 (Homo sapiens, UniProt P15170+Q96SW2).
T6 construct: effects of the compounds of the present disclosure on the expression of target proteins in cells; endogenous in cells; host or cells: human PBMCs (hPBMCs)
Kind of assay: Western-blot assay, substrate protein degradation in hPBMCs: GSPT1.

T6 sequence (P15170 whole entry): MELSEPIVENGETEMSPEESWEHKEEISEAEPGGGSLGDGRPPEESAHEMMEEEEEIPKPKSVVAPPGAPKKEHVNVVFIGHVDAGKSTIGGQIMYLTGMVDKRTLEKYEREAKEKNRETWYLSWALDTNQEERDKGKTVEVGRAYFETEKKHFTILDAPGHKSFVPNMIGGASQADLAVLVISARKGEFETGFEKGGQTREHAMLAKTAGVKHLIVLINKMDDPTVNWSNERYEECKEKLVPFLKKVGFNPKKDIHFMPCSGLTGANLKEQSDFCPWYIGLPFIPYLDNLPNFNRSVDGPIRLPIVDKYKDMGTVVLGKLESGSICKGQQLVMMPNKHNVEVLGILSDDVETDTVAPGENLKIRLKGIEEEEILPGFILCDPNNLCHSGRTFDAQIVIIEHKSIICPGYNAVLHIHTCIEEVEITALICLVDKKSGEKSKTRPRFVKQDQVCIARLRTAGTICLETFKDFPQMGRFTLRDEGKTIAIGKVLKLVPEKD
T6 sequence (Q96SW2 whole entry): as the sequence (Q96SW2 whole entry) above
T6 sequence (Q16531 whole entry partner): as the sequence (Q16531 whole entry partner) above
T2 sequence (Q13422 whole entry): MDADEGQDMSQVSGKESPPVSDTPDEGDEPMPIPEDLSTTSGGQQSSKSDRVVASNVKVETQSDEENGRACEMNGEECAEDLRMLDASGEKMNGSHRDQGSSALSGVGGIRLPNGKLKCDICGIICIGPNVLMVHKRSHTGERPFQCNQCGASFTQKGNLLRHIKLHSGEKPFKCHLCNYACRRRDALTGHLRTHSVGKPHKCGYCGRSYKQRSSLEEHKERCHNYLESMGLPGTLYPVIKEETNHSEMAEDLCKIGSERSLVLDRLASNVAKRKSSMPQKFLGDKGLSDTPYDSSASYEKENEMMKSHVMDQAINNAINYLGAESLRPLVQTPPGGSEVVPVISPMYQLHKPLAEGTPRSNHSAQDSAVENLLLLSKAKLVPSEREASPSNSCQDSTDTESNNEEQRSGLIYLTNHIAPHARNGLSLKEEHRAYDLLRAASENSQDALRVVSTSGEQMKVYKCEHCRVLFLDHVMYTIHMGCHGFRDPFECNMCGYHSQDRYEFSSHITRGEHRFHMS
T2 sequence (Q96SW2 whole entry): as the sequence (Q96SW2 whole entry) above
T2 sequence (Q16531 whole entry partner): as the sequence (Q16531 whole entry partner) above
T1 sequence (P30291 whole entry): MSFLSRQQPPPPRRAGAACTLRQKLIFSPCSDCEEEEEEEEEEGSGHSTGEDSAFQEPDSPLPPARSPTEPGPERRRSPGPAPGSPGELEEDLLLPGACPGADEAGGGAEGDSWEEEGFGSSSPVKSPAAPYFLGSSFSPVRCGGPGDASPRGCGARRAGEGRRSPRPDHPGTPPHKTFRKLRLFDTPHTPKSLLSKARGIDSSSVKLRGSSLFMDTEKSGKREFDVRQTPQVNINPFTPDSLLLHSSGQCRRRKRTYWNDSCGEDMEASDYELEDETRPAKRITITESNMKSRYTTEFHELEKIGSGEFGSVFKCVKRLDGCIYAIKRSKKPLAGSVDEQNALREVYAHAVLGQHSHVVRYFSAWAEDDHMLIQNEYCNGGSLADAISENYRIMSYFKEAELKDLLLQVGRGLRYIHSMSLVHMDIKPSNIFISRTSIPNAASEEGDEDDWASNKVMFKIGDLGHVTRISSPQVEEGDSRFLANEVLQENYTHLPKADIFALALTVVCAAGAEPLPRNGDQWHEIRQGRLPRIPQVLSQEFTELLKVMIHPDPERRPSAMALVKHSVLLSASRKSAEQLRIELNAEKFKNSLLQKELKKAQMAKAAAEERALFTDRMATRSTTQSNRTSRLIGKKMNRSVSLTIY
T1 sequence (Q96SW2 whole entry): as the sequence (Q96SW2 whole entry) above
T1 sequence (Q16531 whole entry partner): as the sequence (Q16531 whole entry partner) above

Regarding `O=C1CCN(N2Cc3cc(CN4CCN(c5ccnc(Cl)c5Cl)CC4)ccc3C2=O)C(=O)N1` [GT-07169, 1-(5-((4-(2,3-dichloropyridin-4-yl)piperazin-1-yl)methyl)-1-oxoisoindolin-2-yl)dihydropyrimidine-2,4(1H,3H)-dione], the “WEE1 substrate protein remaining %” value on WEE1 is “A ("A" is defined as 0% ≤ substrate protein remaining % ≤ 80%)”. The “IKZF1 substrate protein remaining %” value at IKZF1 was “B ("B" is defined as 80%< substrate protein remaining %≤ 100%)”. On IKZF2, the “IKZF2 substrate protein remaining %” value is “B ("B" is defined as 80%< substrate protein remaining %≤ 100%)”. Also, at IKZF3, the “IKZF3 substrate protein remaining %” value is on record as “B ("B" is defined as 80%< substrate protein remaining %≤ 100%)”. Also, on CK1α, the “CK1α substrate protein remaining %” value is given as “B ("B" is defined as 80%< substrate protein remaining %≤ 100%)”. Moreover, at GSPT1, the “GSPT1 substrate protein remaining %” value is on record as “B ("B" is defined as 80%< substrate protein remaining %≤ 100%)”.
As for `O=C1CCN(N2Cc3cc(CN4CCN(c5c(Cl)cncc5Br)CC4)ccc3C2=O)C(=O)N1` [GT-07170, 1-(5-((4-(3-bromo-5-chloropyridin-4-yl)piperazin-1-yl)methyl)-1-oxoisoindolin-2-yl)dihydropyrimidine-2,4(1H,3H)-dione], the “WEE1 substrate protein remaining %” value on WEE1 is “A ("A" is defined as 0% ≤ substrate protein remaining % ≤ 80%)”. For the same molecule, the “IKZF1 substrate protein remaining %” value on IKZF1 is “A ("A" is defined as 0% ≤ substrate protein remaining % ≤ 80%)”. The “IKZF2 substrate protein remaining %” value at IKZF2 is given as “B ("B" is defined as 80%< substrate protein remaining %≤ 100%)”. Further, the “IKZF3 substrate protein remaining %” value at IKZF3 is recorded as “B ("B" is defined as 80%< substrate protein remaining %≤ 100%)”. Moreover, the “CK1α substrate protein remaining %” value on CK1α is recorded as “B ("B" is defined as 80%< substrate protein remaining %≤ 100%)”. For the same molecule, on GSPT1, the “GSPT1 substrate protein remaining %” value is listed as “B ("B" is defined as 80%< substrate protein remaining %≤ 100%)”.
Take `O=C1CCN(N2Cc3cc(CN4CCN(c5c(F)cncc5Cl)CC4)ccc3C2=O)C(=O)N1` [GT-07171]: the “WEE1 substrate protein remaining %” value on WEE1 is recorded as “A ("A" is defined as 0% ≤ substrate protein remaining % ≤ 80%)”. The “IKZF1 substrate protein remaining %” value at IKZF1 was “B ("B" is defined as 80%< substrate protein remaining %≤ 100%)”. Also, the “IKZF2 substrate protein remaining %” value on IKZF2 was “B ("B" is defined as 80%< substrate protein remaining %≤ 100%)”. Besides, the “IKZF3 substrate protein remaining %” value on IKZF3 is on record as “B ("B" is defined as 80%< substrate protein remaining %≤ 100%)”. In addition, the “CK1α substrate protein remaining %” value at CK1α is given as “B ("B" is defined as 80%< substrate protein remaining %≤ 100%)”. At GSPT1, the “GSPT1 substrate protein remaining %” value is reported as “B ("B" is defined as 80%< substrate protein remaining %≤ 100%)”.
As to `O=C1CCN(N2C(=O)c3ccc(CN4CCN(c5ncccn5)CC4)cc3C2=O)C(=O)N1` [GT-07285, 2-(2,4-dioxotetrahydropyrimidin-1(2H)-yl)-5-((4-(pyrimidin-2-yl)piperazin-1-yl)methyl)isoindoline-1,3-dione], the “WEE1 substrate protein remaining %” value on WEE1 is “A ("A" is defined as 0% ≤ substrate protein remaining % ≤ 80%)”. Also, the “IKZF1 substrate protein remaining %” value on IKZF1 is given as “A ("A" is defined as 0% ≤ substrate protein remaining % ≤ 80%)”. The “IKZF2 substrate protein remaining %” value on IKZF2 is on record as “B ("B" is defined as 80%< substrate protein remaining %≤ 100%)”. For the same molecule, the “IKZF3 substrate protein remaining %” value on IKZF3 is “B ("B" is defined as 80%< substrate protein remaining %≤ 100%)”. Further, the “CK1α substrate protein remaining %” value at CK1α was “B ("B" is defined as 80%< substrate protein remaining %≤ 100%)”. Also, the “GSPT1 substrate protein remaining %” value at GSPT1 is “B ("B" is defined as 80%< substrate protein remaining %≤ 100%)”.

For the origin of these results see patent EP4722207A1, “OXOISOINDOLINYL-SUBSTITUTED TETRAHYDROPYRIMIDINEDIONE DERIVATIVE AND USE THEREOF” (Gluetacs Therapeutics (Shanghai) Co., Ltd., priority 2023, dated 2024).
